Measurements reported in PubChem BioAssay (NCI).
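These data come from cells grown in 96-well plates and exposed to compound for 48 hours at five concentrations. Definition used: TGI = concentration required for complete inhibition of growth.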

Experiments:
Assay in all cases: NCI-60 cell line screen, 48 h
HL-60(TB) leukemia = system: HL-60(TB) leukemia
SN12C renal = system: SN12C renal
IGROV1 ovarian = system: IGROV1 ovarian
OVCAR-4 ovarian = system: OVCAR-4 ovarian
NCI-H460 lung = system: NCI-H460 lung
SW-620 colon = system: SW-620 colon
HT29 colon = system: HT29 colon
HOP-18 NSCLC = system: HOP-18 NSCLC
HOP-62 NSCLC = system: HOP-62 NSCLC
SK-MEL-2 melanoma = system: SK-MEL-2 melanoma
SNB-78 CNS = system: SNB-78 CNS

O=C1NC(=O)C(=Nc2cccc3c(=O)[nH][nH]c(=O)c23)C(c2nc3ccccc3s2)C1=O (configuration not stated)
TGI (HL-60(TB) leukemia): > 100 µM
TGI (SN12C renal): > 100 µM
TGI (IGROV1 ovarian): > 100 µM
TGI (OVCAR-4 ovarian): > 100 µM
TGI (NCI-H460 lung): > 100 µM
TGI (SW-620 colon): > 100 µM
TGI (HT29 colon): > 100 µM
TGI (HOP-18 NSCLC): > 100 µM
TGI (HOP-62 NSCLC): > 100 µM
TGI (SK-MEL-2 melanoma): > 100 µM
TGI (SNB-78 CNS): > 100 µM

CC1(C)O[C@@H](CCl)C[C@H](C#N)O1
TGI (HL-60(TB) leukemia): > 100 µM
TGI (SN12C renal): > 100 µM
TGI (IGROV1 ovarian): > 100 µM
TGI (OVCAR-4 ovarian): > 100 µM
TGI (NCI-H460 lung): > 100 µM
TGI (SW-620 colon): > 100 µM
TGI (HT29 colon): > 100 µM
TGI (HOP-18 NSCLC): > 100 µM
TGI (HOP-62 NSCLC): > 100 µM
TGI (SK-MEL-2 melanoma): > 100 µM
TGI (SNB-78 CNS): > 100 µM

O=[N+]([O-])c1ccc(C2CC(c3ccccc3Cl)=Nc3ccccc3S2=O)cc1 (configuration not stated)
TGI (HL-60(TB) leukemia): 3.63 µM
TGI (SN12C renal): 5.2 µM
TGI (IGROV1 ovarian): 8.57 µM
TGI (OVCAR-4 ovarian): 6.12 µM
TGI (NCI-H460 lung): 17.9 µM
TGI (SW-620 colon): 3.91 µM
TGI (HT29 colon): 5.73 µM
TGI (HOP-18 NSCLC): 39.5 µM
TGI (HOP-62 NSCLC): 23.4 µM
TGI (SK-MEL-2 melanoma): 51.7 µM
TGI (SNB-78 CNS): 56 µM

CN=C(NC(=S)N(C)C)N(C)C
TGI (HL-60(TB) leukemia): > 100 µM
TGI (SN12C renal): > 100 µM
TGI (IGROV1 ovarian): > 100 µM
TGI (OVCAR-4 ovarian): > 100 µM
TGI (NCI-H460 lung): > 100 µM
TGI (SW-620 colon): > 100 µM
TGI (HT29 colon): > 100 µM
TGI (HOP-18 NSCLC): > 100 µM
TGI (HOP-62 NSCLC): > 100 µM
TGI (SK-MEL-2 melanoma): > 100 µM
TGI (SNB-78 CNS): > 100 µM

Cc1ccc(NC(=O)C2C(=O)N(c3ccc(C)c(C)c3)C(=O)/C2=N\NC(N)=O)cc1C (configuration not stated)
TGI (HL-60(TB) leukemia): > 100 µM
TGI (SN12C renal): > 100 µM
TGI (IGROV1 ovarian): > 100 µM
TGI (OVCAR-4 ovarian): > 100 µM
TGI (NCI-H460 lung): > 100 µM
TGI (SW-620 colon): > 100 µM
TGI (HT29 colon): > 100 µM
TGI (HOP-18 NSCLC): > 100 µM
TGI (HOP-62 NSCLC): > 100 µM
TGI (SK-MEL-2 melanoma): > 100 µM
TGI (SNB-78 CNS): > 100 µM

N#CC1CCCCOCCOCCOCCOCCOCCCCCC1=O (configuration not stated)
TGI (HL-60(TB) leukemia): > 100 µM
TGI (SN12C renal): > 100 µM
TGI (IGROV1 ovarian): > 100 µM
TGI (OVCAR-4 ovarian): > 100 µM
TGI (NCI-H460 lung): > 100 µM
TGI (SW-620 colon): > 100 µM
TGI (HT29 colon): > 100 µM
TGI (HOP-18 NSCLC): > 100 µM
TGI (HOP-62 NSCLC): > 100 µM
TGI (SK-MEL-2 melanoma): > 100 µM
TGI (SNB-78 CNS): > 100 µM

O=[N+]([O-])c1ccc(-c2noc(-c3ccc(Cl)cc3)c2C2=NCCN2)cc1
TGI (HL-60(TB) leukemia): > 100 µM
TGI (SN12C renal): > 100 µM
TGI (IGROV1 ovarian): > 100 µM
TGI (OVCAR-4 ovarian): > 100 µM
TGI (NCI-H460 lung): > 100 µM
TGI (SW-620 colon): > 100 µM
TGI (HT29 colon): > 100 µM
TGI (HOP-18 NSCLC): > 100 µM
TGI (HOP-62 NSCLC): > 100 µM
TGI (SK-MEL-2 melanoma): > 100 µM
TGI (SNB-78 CNS): > 100 µM

CN(C)c1nnnn1-c1c(N)n(C)c(=O)n(C)c1=O
TGI (HL-60(TB) leukemia): > 100 µM
TGI (SN12C renal): > 100 µM
TGI (IGROV1 ovarian): > 100 µM
TGI (OVCAR-4 ovarian): > 100 µM
TGI (NCI-H460 lung): > 100 µM
TGI (SW-620 colon): > 100 µM
TGI (HT29 colon): > 100 µM
TGI (HOP-18 NSCLC): > 100 µM
TGI (HOP-62 NSCLC): > 100 µM
TGI (SK-MEL-2 melanoma): > 100 µM
TGI (SNB-78 CNS): > 100 µM

O=S(=O)(O)c1ccc(N=Nc2nc(C(F)(F)F)c(C(F)(F)F)[nH]2)cc1
TGI (HL-60(TB) leukemia): > 100 µM
TGI (SN12C renal): > 100 µM
TGI (IGROV1 ovarian): > 100 µM
TGI (OVCAR-4 ovarian): 50.4 µM
TGI (NCI-H460 lung): > 100 µM
TGI (SW-620 colon): > 100 µM
TGI (HT29 colon): > 100 µM
TGI (HOP-18 NSCLC): > 100 µM
TGI (HOP-62 NSCLC): > 100 µM
TGI (SK-MEL-2 melanoma): > 100 µM
TGI (SNB-78 CNS): > 100 µM

S=c1[nH]nc(Cc2ccccc2)c(=S)[nH]1
TGI (HL-60(TB) leukemia): > 100 µM
TGI (SN12C renal): > 100 µM
TGI (IGROV1 ovarian): > 100 µM
TGI (OVCAR-4 ovarian): > 100 µM
TGI (NCI-H460 lung): > 93.7 µM
TGI (SW-620 colon): > 100 µM
TGI (HT29 colon): > 100 µM
TGI (HOP-18 NSCLC): > 100 µM
TGI (HOP-62 NSCLC): > 100 µM
TGI (SK-MEL-2 melanoma): > 76.9 µM
TGI (SNB-78 CNS): > 100 µM

C[N+](C)(C)CC1CCC/C1=N/O (configuration not stated)
TGI (HL-60(TB) leukemia): 35.3 µM
TGI (SN12C renal): > 100 µM
TGI (IGROV1 ovarian): > 100 µM
TGI (OVCAR-4 ovarian): > 100 µM
TGI (NCI-H460 lung): > 100 µM
TGI (SW-620 colon): 19.5 µM
TGI (HT29 colon): > 100 µM
TGI (HOP-18 NSCLC): > 100 µM
TGI (HOP-62 NSCLC): > 100 µM
TGI (SK-MEL-2 melanoma): > 100 µM
TGI (SNB-78 CNS): > 100 µM

Cc1cccc(C(C)C)c1N1C(=O)C(=O)C(c2nc3ccccc3o2)C(=O)C1=O
TGI (HL-60(TB) leukemia): 80.9 µM
TGI (SN12C renal): > 100 µM
TGI (IGROV1 ovarian): > 100 µM
TGI (OVCAR-4 ovarian): > 100 µM
TGI (NCI-H460 lung): > 100 µM
TGI (SW-620 colon): > 100 µM
TGI (HT29 colon): > 100 µM
TGI (HOP-18 NSCLC): > 100 µM
TGI (HOP-62 NSCLC): > 100 µM
TGI (SK-MEL-2 melanoma): > 100 µM
TGI (SNB-78 CNS): > 100 µM
